The series can be described thus: Pharmacokinetics after oral administration of the monophosphate prodrug to rats (blood and plasma). Format: in vivo. The procedure: A sodium salt of the monophosphate prodrug compound (Formula (V-B)) was administered orally to rats in a dose of 10 mg/kg (5 mL/kg). The vehicle administered was dimethylacetamide:PEG400:30% HβCD (5:25:70). The pharmacokinetic results are tabulated below and graphically illustrated in FIG. 1.

Take `CC(C)n1nccc1-c1ncccc1COc1cccc(O)c1C=O` [Formula (III), 2-hydroxy-6-([2-[1-(propan-2-yl)-1H-pyrazol-5-yl]pyridin-3-yl]methoxy)benzaldehyde]: the “whole blood Cmax following administration of the compound of formula (III), compared with Cmax after the monophosphate prodrug” value (compound of formula (III) administered at the same dose) is listed as “equivalent”.
In the case of `CC(C)n1nccc1-c1ncccc1COc1cccc(OP(=O)(O)O)c1C=O` [Formula (V-B), 2-formyl-3-((2-(1-isopropyl-1H-pyraol-5-yl)pyridin-3-yl)methoxy)phenyl dihydrogen phosphate], the “conversion of the prodrug to compound of formula (III)” value (oral, 10 mg/kg, rats) is “efficiently con veiled to compound of formula (III)”.
